These results are taken from patent publication US8597632B2, “Anionic oligosaccharide conjugates” (Glycan Biosciences LLC, priority 2008, dated 2013).

Holding throughout (format): in vivo
Assay [1] has as its system guinea pig model of asthma. The experiment in a line: Guinea pig model of asthma (OVA).
For another assay, the system named is Guinea-pig anaphylaxis. Put plainly: Guinea-pig anaphylaxis model (OVA). The settings on record: for % of the animals died (anaphylaxis): 5 mg/kg intranasal 30 min prior to OVA. An excerpt: Guinea-pig anaphylaxis has for many years been considered the classical example of anaphylaxis, in contrast to other species (e.g. mice) that completely lack anaphylactic responses after allergen inhalation. Anaphylactic shock is believed to be due to liberation of histamine with subsequent contraction of smooth muscle after the inhalation of antigen into the airway and lungs. Contraction of the bronchial musculature completely shuts off the alveoli and prevents exhalation of air, and the animals die of asphyxia. In guinea-pigs allergen doses that are high enough to produce a significant late-phase responses (i.e. cellular eosinophilia, late phase exudation) inevitably also give rise to prior strong acute reactions that are so intense that some animals may die in acute airway constriction.
In this model the guinea pigs were sensitized to ovalbumin (OVA) twice (on days 0 and 7) by an intraperitoneal injection of 0.5 mL saline containing 100 mg Al(OH)3 and 2 μg OVA. Three weeks after the last sensitization, animals were anaesthetized and the exposure of the nasal cavity to allergen was performed by dropping OVA solution at 2 mg/mL into bilateral nasal cavities (20 μl per nasal cavity). For the negative control the animals received sensitization and challenge with saline. The animals are pretreated with either vehicle or drug (anionic oligosaccharide conjugates or Budesonide) 30 min prior to intranasal instillation of OVA. Vehicle or drugs are administered, 25 μl-50 μl/nostril. A comparison of the anionic oligosaccharide conjugates with Budesonide, as the reference compound, is included. In this study Budesonide at 0.65 mg/kg was not effective at preventing anaphylaxis as 70% of the animals in this group died by acute airway constriction.

Assay [2] deals with allergic rhinitis model in the guinea pig. Put plainly: Allergic rhinitis model in the guinea pig (OVA). To be noted: for % inhibition of protein content of the nasal lavage fluid (plasma exudation): 5 mg/kg intranasal 30 min before OVA, 8 hours after challenge; for eosinophil and neutrophil infiltration into nasal lavage fluid: 5 mg/kg, 8 hours after challenge (FIG. 3).
The test system of the next assay is mouse model of emphysema. Put plainly: Mouse model of emphysema / COPD (cigarette smoke). As for the experimental part:
A mouse model of emphysema was used. Acute or chronic exposure of mice to cigarette smoke lead to lung responses that in part mimic the inflammatory and structural changes observed in COPD. In this model male C57Bl/6J mice are subjected to acute or chronic smoke exposure, with normal room air being the control situation. In the acute study mice were exposed to either room air or to the smoke of five cigarettes (approximately 12 mg of tar and 0.9 mg of nicotine) for 20 minutes. In the chronic study mice were exposed to either room air or to the smoke of three cigarettes/day for 5 days/week for 6 months. The 4 groups of mice were then further divided so that mice within each group also received various anionic oligosaccharide conjugates via an inhaled route.
In the acute exposure groups of mice anionic oligosaccharide conjugates were given 30 minutes before exposure to cigarette smoke. Assessment of the efficacy of the drug for mice in the acute exposure groups involved assessment of trolox equivalent anti-oxidant capacity of the bronchoalveolar lavage fluid (BALF) at the end of smoke exposure. The BALF was examined for cytokines and chemokines that are associated with an inflammatory response. The levels of these agents were determined at 4 hours after exposure and at 24 hours after cigarette smoke exposure. A range of cytokines and chemokines was measured. These included: IL-1α, IL-1β, IL-2, IL-3, IL-4, IL-5, IL-6, IL-10, IL-12, RANTES, MIP-1α, cytokine-induced neutrophil chemoattractant (KC), TNF-α and IFN-γ). A differential cell count of the cells in the BALF was also determined.
The animals in the chronic study received the anionic oligosaccharide conjugates (including ID 9) once a day for the duration of the experiment. At the completion of the experiment animals were killed and the lungs fixed intratracheally with formalin (5%) and lung volume was measured by water displacement. […] The level of desmosine in the lung tissue was also determined. […]

Assay [3] deals with rat model of acute lung injury and ADRS. Put plainly: Rat model of acute lung injury and ARDS (LPS). The settings on record: intra-tracheal 0.5 and 2.5 mg/kg, 30 minutes before LPS. An excerpt:
A rat model of acute lung injury and ADRS was used (Jansson, Lung 182:1-9, 2004). The model is based on the understanding that endotoxin found in common pathogens (e.g. bacteria) can lead to the development of ARDS, septic shock and multiple organ dysfunction syndrome in the clinical situation. Lipopolysaccharide (LPS), a component of the outer membrane of gram-negative bacteria is the prototypical example of endotoxin and exposure of the respiratory tract of rats to LPS can be used as a model of acute lung inflammation and ARDS. […]
Excised lung gas volume (ELGV) is measured by Archimedes' principle and is based on the stable amount of air trapped within the excised lungs at a transpulmonary pressure of 0 cmH2O. […] A density determination kit (P3000, Mettler-Toledo GmbH, Sweden) and optional density determination software for the balance were used on the basis of the principle that every solid body immersed in fluid loses weight, and is expressed as g/cm^3. […] ELGV is determined by the difference between bracket weight and lung buoyancy in the liquid. […] Indication of lung tissue edema was calculated by the difference between lung tissue weight outside the beaker and bracket weight. The lung tissue density was determined by the ratio of the lung weight (difference between lung tissue weight outside the beaker and holder weight) and the air volume within the lung (ELGV). […]

[4] abbreviates: 0.1 mg/kg pretreatment (FIG. 5).
Setting [5] is: drug 0.1 mg/kg intra-tracheal, MCh (10 mg/mL).
The mark [6] stands for this setting: drug 0.1 mg/kg intra-tracheal, MCh (30 mg/mL).
The mark [7] stands for this setting: drug 2.5 mg/kg intra-tracheal, MCh (10 mg/mL).
The mark [8] stands for this setting: drug 2.5 mg/kg intra-tracheal, MCh (30 mg/mL).

Marks after values point to notes of the source that are not given here.

Turning to `CCCC1O[C@@H]2C[C@H]3[C@@H]4CCC5=CC(=O)C=C[C@]5(C)[C@H]4[C@@H](O)C[C@]3(C)[C@]2(C(=O)CO)O1` (some centres unmarked) [Budesonide, reference compound], in assay [1] (setting [4]), the “inhibition of OVA induced leukocyte influx in BAL” value is reported as 76%. Besides, the “AHR: Cdyn, % increase from that of the positive control” value came out at 97.2%** in assay [1] (setting [5]), 116.2%** in assay [1] (setting [6]), 19.7% in assay [1] (setting [7]) and 70.9%** in assay [1] (setting [8]). Besides, the “AHR: RL, % inhibition from that of the positive control” value in assay [1] (setting [5]) is listed as 86.5%**; in assay [1] (setting [6]), 105%**; in assay [1] (setting [7]), −89.4%; in assay [1] (setting [8]), 98.9%**. Further, the “% of the animals died by acute airway constriction” value in the assay on Guinea-pig anaphylaxis (0.65 mg/kg intranasal 30 min prior to OVA) came out at 70%.
Take “(Maltopentaose)-(Et2)-(Maltopentaose) [ID 7]”: in assay [2], the “% inhibition of protein content of the nasal lavage fluid (plasma exudation)” value was 91.4%; the “eosinophil and neutrophil infiltration into nasal lavage fluid” value is reported as “only blocked eosinophils”. Moreover, the “% of the animals died (anaphylaxis)” value in the assay on Guinea-pig anaphylaxis is reported as 27%.
For “(Maltopentaose)-Et4-(Maltopentaose) [ID 9]”, the “inhibition of OVA induced leukocyte influx in BAL” value in assay [1] (setting [4]) was found to be 62%; in assay [1] (2.5 mg/kg pretreatment (FIG. 5)), 85%. The “AHR: Cdyn, % increase from that of the positive control” value in assay [1] (setting [5]) stood at 76.6%**; in assay [1] (setting [6]), 90%**; in assay [1] (setting [7]), 68.7%*; in assay [1] (setting [8]) it was 128.4%**. The “AHR: RL, % inhibition from that of the positive control” value was determined as 75.3%* in assay [1] (setting [5]), 84.4%** in assay [1] (setting [6]), 80.5%** in assay [1] (setting [7]) and 99.5%** in assay [1] (setting [8]). In assay [1] (even at 0.1 mg/kg (FIG. 4)), the “antigen induced elevated protein content of BAL” value was “very effectively inhibits the elevated protein content of BAL”. Also, the “lung function: development of Cdyn and RL” value in assay [1] (methacholine evoked bronchoconstriction, 8 hours after provocation) is “inhibited the development of both Cdyn and RL”. Also, the “numbers of neutrophils in BALF” value in the assay with mouse model of emphysema (acute cigarette smoke exposure) is given as “significantly attenuated”. The “cellular infiltrate into BALF” value in the assay on mouse model of emphysema (acute cigarette smoke exposure, inhaled 30 minutes before exposure) is given as “decreased the cellular infiltrate into BALF”. For the same compound, the “anti-inflammatory activity in COPD model” value in the assay with mouse model of emphysema (chronic smoke exposure, once a day) was “could act as anti-inflammatory agents”. Also, the “% inhibition of protein content of the nasal lavage fluid (plasma exudation)” value in assay [2] is 51.5%. In assay [2], the “eosinophil and neutrophil infiltration into nasal lavage fluid” value is recorded as “particularly effective at blocking not only eosinophil infiltration but also neutrophil infiltration”. Further, the “% of the animals died (anaphylaxis)” value in the assay with Guinea-pig anaphylaxis was determined as 35%. Also, the “inhibition of neutrophil infiltration (BAL)” value in assay [3] is “marked”.
